Experimental data: ChEMBL document CHEMBL1201862, “PubChem BioAssay data set” (2004)
Active and inactive are the calls of the source.

How the values were obtained:
cells = assay type: functional
Caspase-9 = Caspase-9 (Homo sapiens, UniProt P55211); assay: caspase-9 enzyme inhibition, dose response, selectivity assay for caspase-6 inhibitor project, biochemical, fluorescence, plate reader, cherry-picked samples (AID 743293)
Vero = Vero cell cytotoxicity, cytotoxicity control for flavivirus capping enzyme inhibitors (AID 588742); assay type: functional; conditions: Chlorocebus sabaeus
[1] = biological target: Cyclin-dependent kinase 5 (Homo sapiens, UniProt Q00535); assay type: functional;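 note: CDK5 measured as one member of a kinase profiling panel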
Chain of Cyclin-dependent kinase 5 (Q00535 whole entry): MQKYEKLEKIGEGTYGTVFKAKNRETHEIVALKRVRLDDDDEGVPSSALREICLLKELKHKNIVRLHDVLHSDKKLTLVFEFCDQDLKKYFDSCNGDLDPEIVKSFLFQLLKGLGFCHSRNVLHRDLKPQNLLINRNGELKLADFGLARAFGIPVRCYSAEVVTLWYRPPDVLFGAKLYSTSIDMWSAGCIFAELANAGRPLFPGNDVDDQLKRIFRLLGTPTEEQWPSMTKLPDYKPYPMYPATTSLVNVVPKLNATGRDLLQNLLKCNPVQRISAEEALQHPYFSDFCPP

[2] = biological target: Tyrosine-protein kinase Lyn (Homo sapiens, UniProt P07948); assay type: functional;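 note: lyn as one member of a kinase panel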
Chain of Tyrosine-protein kinase Lyn (P07948 whole entry): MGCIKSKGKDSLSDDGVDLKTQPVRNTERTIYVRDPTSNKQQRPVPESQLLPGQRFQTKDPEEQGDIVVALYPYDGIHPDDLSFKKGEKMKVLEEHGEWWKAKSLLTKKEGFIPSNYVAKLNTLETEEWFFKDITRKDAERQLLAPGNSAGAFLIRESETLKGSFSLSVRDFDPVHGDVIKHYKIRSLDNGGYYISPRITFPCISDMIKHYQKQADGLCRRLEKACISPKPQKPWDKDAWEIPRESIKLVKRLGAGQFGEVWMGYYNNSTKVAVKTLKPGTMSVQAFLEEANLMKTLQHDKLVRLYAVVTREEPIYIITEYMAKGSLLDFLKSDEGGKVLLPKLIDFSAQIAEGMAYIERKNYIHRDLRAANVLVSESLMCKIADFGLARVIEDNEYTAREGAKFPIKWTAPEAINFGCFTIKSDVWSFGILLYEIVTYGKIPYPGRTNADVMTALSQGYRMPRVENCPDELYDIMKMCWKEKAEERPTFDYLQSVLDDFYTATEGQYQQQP

[3] = biological target: Tyrosine-protein kinase Lck (Homo sapiens, UniProt P06239); assay type: functional;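 note: lck was assayed as one member of a kinase panel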
Chain of Tyrosine-protein kinase Lck (P06239 whole entry): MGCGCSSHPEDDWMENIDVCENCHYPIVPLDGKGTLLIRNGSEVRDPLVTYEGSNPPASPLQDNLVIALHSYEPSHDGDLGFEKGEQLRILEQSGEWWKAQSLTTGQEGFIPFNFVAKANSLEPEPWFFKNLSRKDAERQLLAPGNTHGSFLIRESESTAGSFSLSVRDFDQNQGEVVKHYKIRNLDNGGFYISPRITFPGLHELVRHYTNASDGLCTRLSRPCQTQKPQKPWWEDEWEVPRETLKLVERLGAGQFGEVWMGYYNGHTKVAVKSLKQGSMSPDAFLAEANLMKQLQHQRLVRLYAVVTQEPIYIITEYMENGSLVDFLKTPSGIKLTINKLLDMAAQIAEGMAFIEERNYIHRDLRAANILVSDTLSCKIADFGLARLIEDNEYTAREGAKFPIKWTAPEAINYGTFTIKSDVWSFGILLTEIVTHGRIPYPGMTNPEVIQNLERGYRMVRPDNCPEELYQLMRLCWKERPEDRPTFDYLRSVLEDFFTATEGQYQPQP

[4] = biological target: Mitogen-activated protein kinase 1 (Homo sapiens, UniProt P28482); assay type: functional
Chain of Mitogen-activated protein kinase 1 (P28482 whole entry): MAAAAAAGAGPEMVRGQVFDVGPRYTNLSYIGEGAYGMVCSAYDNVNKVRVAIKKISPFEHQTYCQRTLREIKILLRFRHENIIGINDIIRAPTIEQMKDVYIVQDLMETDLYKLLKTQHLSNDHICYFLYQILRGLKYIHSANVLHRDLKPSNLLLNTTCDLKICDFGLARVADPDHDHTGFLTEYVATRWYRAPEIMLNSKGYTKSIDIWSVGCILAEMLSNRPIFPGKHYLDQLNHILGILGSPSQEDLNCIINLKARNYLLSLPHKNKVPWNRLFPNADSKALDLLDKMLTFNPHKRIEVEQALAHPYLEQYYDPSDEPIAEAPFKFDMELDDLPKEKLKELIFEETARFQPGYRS

[5] = biological target: Testis-specific serine/threonine-protein kinase 1 (Homo sapiens, UniProt Q9BXA7); assay type: functional
Chain of Testis-specific serine/threonine-protein kinase 1 (Q9BXA7 whole entry): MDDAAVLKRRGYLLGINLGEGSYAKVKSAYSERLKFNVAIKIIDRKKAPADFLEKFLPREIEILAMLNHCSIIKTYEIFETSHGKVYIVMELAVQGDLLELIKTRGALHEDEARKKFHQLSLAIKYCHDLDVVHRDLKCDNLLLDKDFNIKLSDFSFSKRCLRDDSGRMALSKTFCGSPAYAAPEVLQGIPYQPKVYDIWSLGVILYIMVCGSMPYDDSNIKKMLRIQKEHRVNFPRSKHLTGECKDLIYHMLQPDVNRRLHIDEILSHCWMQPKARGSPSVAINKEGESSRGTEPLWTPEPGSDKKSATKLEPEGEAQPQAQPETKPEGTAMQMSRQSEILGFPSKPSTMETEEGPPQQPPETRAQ

[6] = biological target: Protein-tyrosine kinase 6 (Homo sapiens, UniProt Q13882); assay type: functional
Chain of Protein-tyrosine kinase 6 (Q13882 whole entry): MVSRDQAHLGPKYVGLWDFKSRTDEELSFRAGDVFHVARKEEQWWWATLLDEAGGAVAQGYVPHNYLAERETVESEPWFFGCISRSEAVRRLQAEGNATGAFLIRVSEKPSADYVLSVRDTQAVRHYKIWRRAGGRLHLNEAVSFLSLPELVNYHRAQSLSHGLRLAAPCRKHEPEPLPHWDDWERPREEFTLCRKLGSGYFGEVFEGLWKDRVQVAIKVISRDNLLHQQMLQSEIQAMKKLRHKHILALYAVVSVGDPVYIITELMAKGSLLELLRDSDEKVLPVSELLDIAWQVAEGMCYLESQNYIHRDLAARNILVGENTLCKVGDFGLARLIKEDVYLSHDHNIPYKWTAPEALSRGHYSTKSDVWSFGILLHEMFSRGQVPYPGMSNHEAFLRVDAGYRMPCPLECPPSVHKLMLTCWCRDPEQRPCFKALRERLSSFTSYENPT

[7] = biological target: Vascular endothelial growth factor receptor 3 (Homo sapiens, UniProt P35916); assay type: functional;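 note: value from a kinome-wide profiling panel, with FLT4 as the panel member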
Chain of Vascular endothelial growth factor receptor 3 (P35916 whole entry): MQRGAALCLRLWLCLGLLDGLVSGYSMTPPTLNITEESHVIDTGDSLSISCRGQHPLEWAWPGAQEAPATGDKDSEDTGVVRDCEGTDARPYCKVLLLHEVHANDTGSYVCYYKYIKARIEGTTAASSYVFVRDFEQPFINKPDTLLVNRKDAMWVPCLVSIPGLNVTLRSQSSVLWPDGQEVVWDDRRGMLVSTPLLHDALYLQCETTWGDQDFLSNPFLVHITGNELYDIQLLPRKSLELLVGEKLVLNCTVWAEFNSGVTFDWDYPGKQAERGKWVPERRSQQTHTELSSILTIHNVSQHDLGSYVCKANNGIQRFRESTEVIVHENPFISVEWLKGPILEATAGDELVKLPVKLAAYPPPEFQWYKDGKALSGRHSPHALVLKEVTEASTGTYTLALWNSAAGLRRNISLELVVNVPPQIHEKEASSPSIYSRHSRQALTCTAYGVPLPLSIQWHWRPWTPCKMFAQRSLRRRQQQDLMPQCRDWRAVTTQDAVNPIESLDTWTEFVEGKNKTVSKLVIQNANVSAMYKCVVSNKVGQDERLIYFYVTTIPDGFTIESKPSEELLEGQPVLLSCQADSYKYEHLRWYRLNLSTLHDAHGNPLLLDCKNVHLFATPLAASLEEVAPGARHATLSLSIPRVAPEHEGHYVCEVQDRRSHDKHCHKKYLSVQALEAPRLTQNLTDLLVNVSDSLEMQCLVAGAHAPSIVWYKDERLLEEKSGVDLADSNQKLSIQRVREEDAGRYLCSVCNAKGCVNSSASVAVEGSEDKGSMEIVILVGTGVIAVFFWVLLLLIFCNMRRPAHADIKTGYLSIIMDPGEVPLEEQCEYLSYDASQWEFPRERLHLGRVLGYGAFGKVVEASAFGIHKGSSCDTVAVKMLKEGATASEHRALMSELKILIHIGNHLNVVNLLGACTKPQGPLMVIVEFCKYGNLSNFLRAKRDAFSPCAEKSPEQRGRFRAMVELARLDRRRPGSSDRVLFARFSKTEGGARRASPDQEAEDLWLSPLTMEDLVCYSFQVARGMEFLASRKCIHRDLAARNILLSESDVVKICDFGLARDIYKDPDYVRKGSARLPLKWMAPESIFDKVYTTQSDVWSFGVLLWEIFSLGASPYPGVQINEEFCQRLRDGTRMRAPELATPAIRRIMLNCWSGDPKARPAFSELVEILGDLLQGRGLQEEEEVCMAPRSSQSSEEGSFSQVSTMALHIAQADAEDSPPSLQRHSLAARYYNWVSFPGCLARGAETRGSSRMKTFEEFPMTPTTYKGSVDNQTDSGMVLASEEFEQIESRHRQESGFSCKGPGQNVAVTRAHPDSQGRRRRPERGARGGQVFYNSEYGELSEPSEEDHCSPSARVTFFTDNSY

[8] = biological target: T1, Mitochondrial peptide methionine sulfoxide reductase (Bos taurus, UniProt P54149); assay type: functional;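 note: absorbance read-out, biochemical high-throughput dose-response screen for MsrA inhibitors, confirmatory; recombinant bovine MsrA coupled to E. coli TrxB with NADPH and selenocystamine; potency is for inhibitors of MsrA activity on DMSO substrate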
T1 sequence (P54149 whole entry): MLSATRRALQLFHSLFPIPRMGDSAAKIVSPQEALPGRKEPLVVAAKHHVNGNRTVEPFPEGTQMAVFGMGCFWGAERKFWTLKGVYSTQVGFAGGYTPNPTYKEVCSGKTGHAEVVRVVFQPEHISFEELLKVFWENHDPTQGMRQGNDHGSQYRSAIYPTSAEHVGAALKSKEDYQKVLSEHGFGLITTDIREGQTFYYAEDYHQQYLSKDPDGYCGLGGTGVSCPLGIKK

Insulin-degrading enzyme = biological target: T2, Insulin-degrading enzyme (Homo sapiens, UniProt P14735); assay: activators of recombinant IDE enzyme, dose response, counter-screen for IDE activator project, biochemical, fluorescence polarization (AID 588681)
T2 sequence (P14735 whole entry): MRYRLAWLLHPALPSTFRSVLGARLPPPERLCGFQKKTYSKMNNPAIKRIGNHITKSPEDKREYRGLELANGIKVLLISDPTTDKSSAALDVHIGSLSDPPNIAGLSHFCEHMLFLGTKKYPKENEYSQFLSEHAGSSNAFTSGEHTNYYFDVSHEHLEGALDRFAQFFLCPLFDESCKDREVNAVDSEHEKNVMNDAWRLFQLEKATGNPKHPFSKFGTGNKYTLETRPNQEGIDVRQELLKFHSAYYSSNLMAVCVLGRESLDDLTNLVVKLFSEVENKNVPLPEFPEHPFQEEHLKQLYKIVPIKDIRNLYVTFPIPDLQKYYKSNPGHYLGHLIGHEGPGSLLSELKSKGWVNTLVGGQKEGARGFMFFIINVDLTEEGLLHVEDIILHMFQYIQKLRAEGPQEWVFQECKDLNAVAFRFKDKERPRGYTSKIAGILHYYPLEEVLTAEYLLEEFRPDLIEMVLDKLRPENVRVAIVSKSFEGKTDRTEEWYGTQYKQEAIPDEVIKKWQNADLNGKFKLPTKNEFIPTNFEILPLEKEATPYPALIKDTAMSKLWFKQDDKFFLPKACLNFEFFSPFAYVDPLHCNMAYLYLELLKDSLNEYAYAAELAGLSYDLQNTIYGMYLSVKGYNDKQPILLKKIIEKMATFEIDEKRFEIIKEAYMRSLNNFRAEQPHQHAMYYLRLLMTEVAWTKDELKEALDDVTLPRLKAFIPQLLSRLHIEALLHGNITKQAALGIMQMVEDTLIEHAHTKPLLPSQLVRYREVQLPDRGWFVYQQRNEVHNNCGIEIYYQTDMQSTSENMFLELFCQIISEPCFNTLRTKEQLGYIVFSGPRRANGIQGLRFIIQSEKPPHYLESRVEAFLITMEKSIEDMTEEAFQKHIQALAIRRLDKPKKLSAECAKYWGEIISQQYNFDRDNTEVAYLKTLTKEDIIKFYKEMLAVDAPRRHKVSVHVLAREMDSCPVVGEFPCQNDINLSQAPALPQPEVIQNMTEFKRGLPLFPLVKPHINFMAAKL

[9] = biological target: T3, Sentrin-specific protease 6 (Homo sapiens, UniProt Q9GZR1); assay type: functional;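 note: Luminescence-based dose-response confirmatory assay of SENP6 inhibition, following up an ultra-high-throughput screen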
T3 sequence (Q9GZR1 whole entry): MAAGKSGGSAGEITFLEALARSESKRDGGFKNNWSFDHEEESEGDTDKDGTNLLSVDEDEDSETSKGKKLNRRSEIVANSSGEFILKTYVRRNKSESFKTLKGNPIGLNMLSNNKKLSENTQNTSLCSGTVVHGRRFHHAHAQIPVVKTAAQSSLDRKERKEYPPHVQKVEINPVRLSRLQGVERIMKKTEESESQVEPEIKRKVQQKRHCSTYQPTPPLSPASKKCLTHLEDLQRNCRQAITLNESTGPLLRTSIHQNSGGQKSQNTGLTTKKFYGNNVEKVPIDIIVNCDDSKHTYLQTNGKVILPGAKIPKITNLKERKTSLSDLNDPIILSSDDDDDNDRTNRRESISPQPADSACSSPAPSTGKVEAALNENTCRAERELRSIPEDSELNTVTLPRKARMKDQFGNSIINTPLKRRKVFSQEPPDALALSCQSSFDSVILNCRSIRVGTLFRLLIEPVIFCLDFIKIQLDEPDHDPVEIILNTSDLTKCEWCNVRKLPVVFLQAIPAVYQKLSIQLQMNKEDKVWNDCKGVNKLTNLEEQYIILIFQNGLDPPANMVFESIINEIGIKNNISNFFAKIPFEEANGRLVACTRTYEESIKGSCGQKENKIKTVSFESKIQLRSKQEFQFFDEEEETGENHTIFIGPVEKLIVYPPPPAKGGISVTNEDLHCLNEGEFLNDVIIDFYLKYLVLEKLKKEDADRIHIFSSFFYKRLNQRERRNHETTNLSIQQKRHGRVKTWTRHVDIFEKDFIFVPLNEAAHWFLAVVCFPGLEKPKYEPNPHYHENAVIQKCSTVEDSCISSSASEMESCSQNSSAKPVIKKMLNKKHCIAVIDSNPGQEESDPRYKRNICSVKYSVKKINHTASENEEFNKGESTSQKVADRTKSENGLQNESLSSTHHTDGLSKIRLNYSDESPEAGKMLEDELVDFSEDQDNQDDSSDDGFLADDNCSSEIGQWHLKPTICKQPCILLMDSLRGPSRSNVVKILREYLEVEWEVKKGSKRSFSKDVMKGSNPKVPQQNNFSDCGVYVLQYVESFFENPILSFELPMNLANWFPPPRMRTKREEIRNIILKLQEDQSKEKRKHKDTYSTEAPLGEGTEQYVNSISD

Chain of Caspase-9 (P55211 1-315 limits assumed): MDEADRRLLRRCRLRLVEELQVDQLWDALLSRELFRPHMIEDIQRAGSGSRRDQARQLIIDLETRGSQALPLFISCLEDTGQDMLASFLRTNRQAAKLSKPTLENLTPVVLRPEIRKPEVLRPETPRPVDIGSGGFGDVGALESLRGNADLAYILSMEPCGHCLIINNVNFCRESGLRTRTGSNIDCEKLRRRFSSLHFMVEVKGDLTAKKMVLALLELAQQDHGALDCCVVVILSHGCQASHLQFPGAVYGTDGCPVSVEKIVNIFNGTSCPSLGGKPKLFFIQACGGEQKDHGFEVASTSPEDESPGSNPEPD
Chain of Caspase-9 (P55211 331-416 limits assumed): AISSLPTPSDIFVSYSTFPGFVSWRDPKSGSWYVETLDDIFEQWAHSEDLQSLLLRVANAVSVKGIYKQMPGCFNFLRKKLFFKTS

Which IC50 (cells) does the source give for `O=[N+]([O-])c1c(Nc2ccccn2)cc(Cl)c2nonc12` here?
Its IC50 is 0.32 µM (active).

What about the AC50 (Caspase-9) of the same compound?
The AC50 was 17.4 µM (active).

And the CC50 (Vero)?
The CC50 was 16.8 µM (active).

For `CC(C)(CO)CNc1nccc(-c2c(-c3ccc(F)cc3)nc3c(CC4CC4)nccn23)n1`, which Ki [1] is on record?
The Ki was > 10 µM (inactive).

And the Ki [2]?
Its Ki is > 1.58 µM (inactive).

What about the Ki [3] of the same compound?
Its Ki is > 2.51 µM (inactive).

What about the Ki [4] of the same compound?
The Ki was 6.31 µM (active).

What about the Ki [5] of the same compound?
The Ki was > 1.58 µM (inactive).

What about the Ki [6] of the same compound?
Its Ki is > 2.51 µM (inactive).

What about the Ki [7] of the same compound?
Its Ki is > 6.31 µM (inactive).

Which IC50 [8] does the source give for `Cc1ccc(S(=O)(=O)/N=C2\C=C(Nc3cccc(C(=O)O)c3)C(=O)c3ccccc32)cc1` here?
Its IC50 is 42.4 µM (inactive).

Which EC50 (Insulin-degrading enzyme) does the source give for `CC[C@@H](C)[C@H](CNC)NC[C@@H](Cc1cccc2ccccc12)NCCc1cccc(C(F)(F)F)c1` here?
The EC50 was > 54.7 µM (inactive).

With `Cc1ccc(C(=O)NC2(O)C(=O)c3ccccc3C2=O)cc1C` as the compound, how does the IC50 [9] read?
The IC50 was 3.48 µM (active).
